{"source": "patent US20250352615A1", "about": "“COMPOSITIONS AND METHODS FOR THE MODULATION OF PIEZO1 AND TRPV4” (Duke University, priority 2021, published 2025)", "type_in_all_cases": "cell-based", "key": {"[1]": {"system": "pancreatic acini", "experiment": "Cell death assays of pancreatic acini (LDH release, Live/Dead, live-cell imaging)", "protocol": "The viability of pancreatic acini with Yoda1 and CCK treatments was analyzed using the Live/Dead Cell Imaging Kit (Thermo Fisher Scientific, catalog R37601) or the LDH Release Assay Kit (Promega, catalog G1780)."}, "[2]": {"system": "Yes-associated protein (YAP)", "experiment": "YAP nuclear localization in mouse stellate cells (immunostaining)", "details": "Yoda1 25 μM for 4 hr", "protocol": "Murine stellate cells from wild type or Piezo1^GFAPKO mice were activated with 25 μM Yoda 1 for 4 hours before fixation. Immunostaining staining was performed as described in Swain et al. JCI Insight 7:e158288 (2022). Yap antibody was diluted at 1/100."}, "[3]": {"molecular_target": "T1, TRPV4 (Mus musculus, UniProt Q9EPK8)", "T1 construct": "endogenous in cells; host or cells: freshly isolated mouse pancreatic acini (C57BL/6J WT)", "experiment": "Calcium imaging of TRPV4-mediated [Ca2+]i in pancreatic acini (agonists, shear stress, Yoda1 sustained phase)", "details": "Yoda1", "protocol": "Mouse pancreatic acini were isolated using a standard collagenase digestion protocol. Isolated acini were plated on a thin-layered, Matrigel-coated, glass-bottom, culture plate (MatTek, P35G-0-14-C). Freshly isolated acini were used in each experiment.\nParallel-plate fluid flow chambers (μ-Slide I 0.4 Luer, and μ-Slide I 0.2 Luer from Ibidi GmbH) were used to measure the shear stress-induced changes in intracellular calcium, mitochondrial depolarization, and trypsin activation. The constant flow rate with shear stress (T) was determined as follows: τ=η×[…] φ for μ-Slide I 0.4 Luer and τ=η×330.4 φ for μ-Slide I 0.2 Luer, where η=viscosity of the medium and φ=flow rate (according to the manufacturer's instructions, Ibidi).\nCalcium imaging in pancreatic acini was performed as previously described. The chemicals used in calcium imaging experiments included the following: Yoda1 (Tocris; 5586), GsMTx4 (Abcam; ab141871), 5′,6′-EET (Santa Cruz Biotechnology; sc-221066), AA (Millipore Sigma; A3611), HC067047 (Tocris; 4100), GSK1016790A (Millipore Sigma; G0798), RN1734 (Tocris; 3746), AACOCF3 (Tocris; 1462), YM26734 (Tocris; 2522), GF109203X (Tocris; 0741), and CCK8 (Sigma-Aldrich)."}, "[4]": {"molecular_target": "T1, TRPV4", "experiment": "Calcium imaging of TRPV4-mediated [Ca2+]i in mouse PSCs", "details": "Yoda1 25 μM", "protocol": "(§1) Mouse and human PSCs were isolated using collagenase digestion. Modified Krebs Henseleit Buffer (KHB) solution (100 mL) was prepared as previously described by Romac et al., Nat. Commun. 9(1):1715 (2018). Pancreatic tissue was digested with 2 mg of collagenase NB 8 (SERVA, catalog 17456) dissolved in 10 mL of modified KHB solution containing 1 mg soybean trypsin inhibitor (SBTI 1-S; Millipore Sigma, catalog T9003) and 20 mg BSA (Thermo Fisher Scientific; BP1600-100). Digestion solution (5 mL) was used to inflate the pancreas. Pancreas with 5 mL of digestion solution was incubated in a shaking water bath for 10 minutes at 37° C. The solution was then discarded. The pancreas tissue was cut into small pieces and digested with fresh 5 mL digestion buffer. Tissue was incubated in a shaking water bath for 40 minutes at 37° C. The cells were then separated from tissue by pipetting up-down with a 10 mL pipette and passed sequentially through a 70 μm and a 40 μm cell strainer. The filtrate was centrifuged at 150×g for 3 minutes at room temperature. The cells were washed with 10 mL Leibovitz's media (Thermo Fisher Scientific, catalog 11415-064), passed through a 20 μm filter, and centrifuged at 80×g for 3 minutes at room temperature. The supernate was removed, and isolated stellate cells were plated on a thin-layered Matrigel-coated glass bottom culture plate (MatTek, P35G-0-14-C). Before plating the cells, Matrigel solution (Corning, catalog 354234) at a ratio of 1.5:100 DMEM/F12 (Thermo Fisher Scientific, catalog 11330-032) was poured onto the culture plate and incubated for 2 hr at 37° C. to form a thin layer of Matrigel coating. Matrigel mixture was removed, and the plate was washed with PBS before cells were plated. Cell culture media, DMEM/F12 with 5% FBS was used for mouse stellate cells. Fresh, human pancreatic tissue was digested with collagenase as described above with modifications. […] The cell viability following Yoda1 treatment was analyzed using the Live/Dead cell imaging kit (Thermo Fisher Scientific, catalog R37601). […]"}, "[5]": {"system": "mouse PSCs", "experiment": "Mouse PSC activation and fibrogenic response", "details": "Yoda1 25 μM", "protocol": "as §1"}}, "data": [{"smiles": "Clc1cccc(Cl)c1CSc1nnc(-c2cnccn2)s1", "note": "[Yoda1]", "values": [{"measurement": "acinar cell death, both Yoda1 and CCK vs individual application", "setting": "[1]; Yoda1 50 μM + CCK 1 nM, WT acini", "result": "acinar cell death was greater"}, {"measurement": "acinar cell morphology by live-cell imaging", "setting": "[1]; Yoda1 50 μM, WT acini", "result": "caused swelling of WT pancreatic acinar cells and release of zymogen granules from the basolateral surface and gradually ruptured the cell membrane"}, {"measurement": "response of acinar cells from Piezo1aci-KO mice (live-cell imaging)", "setting": "[1]; Yoda1, Piezo1aci-KO acini", "result": "did not respond to Yoda1"}, {"measurement": "YAP nuclear localization in stellate cells from Piezo1GFAP-KO mice", "setting": "[2]", "result": "No changes were observed"}, {"measurement": "YAP nuclear localization", "setting": "[2]; wild-type stellate cells, preliminary", "result": "increases YAP nuclear localization"}, {"measurement": "[Ca2+]i response in acini from TRPV4-KO mice", "setting": "[3]", "result": "only transient elevation in [Ca^2+]i"}, {"measurement": "[Ca2+]i response in TRPV4-null PSCs", "setting": "[4]", "result": "caused only transient calcium elevations in TRPV4-null PSCs"}, {"measurement": "activation of PSCs from TRPV4-KO mice (cell shape, perinuclear fat droplets, ECM protein expression)", "setting": "[5]", "result": "did not activate PSCs from TRPV4-KO mice"}, {"measurement": "effects of Yoda1 on fibrosis in Piezo1-deleted PSCs", "setting": "[5]; Piezo1GFAP-KO PSCs", "result": "prevented in Piezo1-deleted PSCs"}, {"measurement": "PSC activation phenotype", "setting": "[5]; WT mouse PSCs", "result": "converted mouse PSCs to an activated phenotype with reduced perinuclear fat droplets, changes in cell shape, and increased fibronectin and collagen type I"}]}]}
